Results on 15 molecules are retold here after the SangsterLogP compilation.

A word on the logP: it is the decadic logarithm of the partition coefficient of the neutral form, usually between octanol and water. The low end stands for lower lipophilicity, the high end for higher lipophilicity.

This data set is described as follows: method code SF, from DOI: 10.1016/0223-5234(96)88223-7.

Turning to `Fc1ccc(-c2nc3ncccc3[nH]2)cc1`, the logP is 2.52.
With `Clc1ccc(-c2nc3ncccc3[nH]2)cc1` the figure was 2.95; with `Cc1ccc(-c2nc3ncccc3[nH]2)cc1`, 3.02; with `Nc1ccc(Cc2nc3ccc(Cl)cc3[nH]2)cc1`, 3.2.
Molecule `COc1ccc(-c2nc3ccc(C)cc3[nH]2)c(OC)c1` had a logP of 3.78.
As to `Clc1ccc(Cc2nc3ccc(Cl)cc3[nH]2)cc1`, the logP came to 5.18.
For the molecule `Cc1ccc(-c2nc3ccc([N+](=O)[O-])cc3[nH]2)c(C)c1`, the logP was 4.1.
Regarding `Cc1ccc(Cc2nc3ccc(Cl)cc3[nH]2)cc1`, the logP is 5.21.
With `CC(C)(C)c1ccc(-c2nc3ncccc3[nH]2)cc1`, the logP was found to be 4.82.
With `Cc1ccccc1-c1nc2ccc([N+](=O)[O-])cc2[nH]1`, the log partition coefficient (logP) came to 3.42.
In the case of `CCc1ccc(-c2nc3ncccc3[nH]2)cc1`, the logP worked out at 3.42.
In the case of `Clc1ccc2nc(Cc3ccc(Br)cc3)[nH]c2c1`, the logP was 5.38.
`COc1ccccc1-c1nc2ccccc2[nH]1` showed a log partition coefficient (logP) of 3.02.
In the case of `COc1ccc(Cc2nc3ccc([N+](=O)[O-])cc3[nH]2)cc1`, the logP worked out at 3.48.
As to `Cc1ccc(-c2nc3ccccc3[nH]2)cc1`, the logP is 3.67.
